Data on 27 molecules can be found in patent US9920075B2, “Triazolopyridine and triazolopyrimidine inhibitors of myeloperoxidase” (BRISTOL-MYERS SQUIBB COMPANY, priority 2014, dated 2018).

pIC50: −log10 of the molar value. “And” between values parts separate entries of the source, which are not always exact repeats. Equal entries are not always repeated.

In assay [1] the target is T1, myeloperoxidase (MPO) (Homo sapiens, UniProt P05164).
T1 sequence (P05164 49-745): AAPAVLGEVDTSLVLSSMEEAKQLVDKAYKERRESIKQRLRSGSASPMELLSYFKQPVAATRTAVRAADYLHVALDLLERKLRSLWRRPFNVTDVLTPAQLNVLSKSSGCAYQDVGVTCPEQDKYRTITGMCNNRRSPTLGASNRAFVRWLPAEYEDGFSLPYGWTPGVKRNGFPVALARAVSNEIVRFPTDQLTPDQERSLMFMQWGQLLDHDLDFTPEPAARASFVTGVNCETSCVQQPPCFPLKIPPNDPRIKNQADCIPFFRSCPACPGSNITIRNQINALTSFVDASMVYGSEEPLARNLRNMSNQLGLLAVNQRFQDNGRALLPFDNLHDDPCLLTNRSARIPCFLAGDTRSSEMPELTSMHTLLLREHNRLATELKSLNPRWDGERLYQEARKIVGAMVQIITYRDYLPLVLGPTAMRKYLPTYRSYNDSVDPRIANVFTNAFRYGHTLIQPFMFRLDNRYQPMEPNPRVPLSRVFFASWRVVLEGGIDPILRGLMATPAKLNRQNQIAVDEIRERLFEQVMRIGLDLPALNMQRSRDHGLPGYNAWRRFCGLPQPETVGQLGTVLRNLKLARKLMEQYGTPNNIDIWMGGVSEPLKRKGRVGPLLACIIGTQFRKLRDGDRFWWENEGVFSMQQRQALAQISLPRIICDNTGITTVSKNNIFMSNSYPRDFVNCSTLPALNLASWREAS
Put plainly: MPO chlorination assay (APF assay). Format: biochemical. The procedure: (§1) [formula] where A=minimal Y value (activity level of inhibited sample), B=maximal Y value (activity level of uninhibited sample), C=Log IC50, D=Hill Slope, x=concentration of inhibitor. MPO Chlorination Assay (APF Assay)
MPO chlorination activity was measured in 100 mM KPi (pH 7.4) by utilizing the non-fluorescent reagent Aminophenyl fluorescein (APF, Invitrogen Cat. #A36003). APF is cleaved by (—OCl) to yield the fluorescent compound fluorescein. […] Enzyme, inhibitor, and chloride were preincubated for ten minutes at room temperature.
After the ten minute preincubation, 25 μL of an APF mixture containing […], 120 mM NaCl and 10 μM H2O2 was added to the plate using the internal dispensing system of a Hammatsu FDSS 6000. […] IC50 values for inhibitors were calculated by taking the slope of the linear portion of the kinetic measurement (20 seconds to ˜80-120 secs).
(§2) IC50 values were calculated by determining the slope of the linear portion of the kinetic trace (180-540 secs), and using that calculated slope to determine % inhibition occurring at each concentration of inhibitor using the following equation:
[formula] where A=minimal Y value (activity level of inhibited sample), B=maximal Y value (activity level of uninhibited sample), C=Log IC50, D=Hill Slope, x=concentration of inhibitor. EPX Bromination Assay

The target of assay [2] is T1, myeloperoxidase (MPO). Put plainly: MPO peroxidation assay (Amplex Red assay). Format: biochemical. The procedure: MPO Peroxidation Assay (Amplex Red Assay)
MPO peroxidation activity was measured in 100 mM KPi (pH 7.4) by utilizing the non-fluorescent reagent Amplex Red (Invitrogen Cat. #A12222) which can be oxidized to the highly fluorescent resorufin. Amplex Red is oxidized by the peroxidase action of MPO to resorufin. […] Enzyme and compound were preincubated for ten minutes at room temperature.
After the ten minute preincubation, 25 μL of an Amplex Red mixture containing 200 μM Amplex Red and 10 mM H2O2 was added to the plate.
as §2, §1

Where [3] appears, read: MPO chlorination, 100 mM KPi pH 7.4, ten minute preincubation, read-out: APF Assay IC50 value.
[4] abbreviates: MPO peroxidation, 100 mM KPi pH 7.4, ten minute preincubation, read-out: Amplex Red Assay IC50 value.
[5] abbreviates: MPO peroxidation (Amplex Red), ranges given, read-out: MPO peroxidation assay IC50 values (binned).

Consider `Cc1nn(-c2cccc(F)c2)nc1COc1cc(N)nc2[nH]nnc12` [Example 12, 7-((2-(3-Fluorophenyl)-5-methyl-2H-1,2,3-triazol-4-yl)methoxy)-3H-[1,2,3]triazolo[4,5-b]pyridin-5-amine], for which the pIC50 in assay [1] (setting [3]) is 7.10; in assay [2] (setting [4]), 7.70.

Regarding `COc1cccc(-n2nc(C)c(COc3cc(N)nc4[nH]nnc34)n2)c1` [Example 13, 7-((2-(3-Methoxyphenyl)-5-methyl-2H-1,2,3-triazol-4-yl)methoxy)-3H-[1,2,3]triazolo[4,5-b]pyridin-5-amine], the values for the pIC50 in assay [1] (setting [3]) and in assay [2] (setting [4]) were 7.00 and 7.52, respectively.

In the case of `Nc1cc(OCc2cc(-c3ccccc3)no2)c2nn[nH]c2n1` [Example 14, 7-((3-Phenylisoxazol-5-yl)methoxy)-3H-[1,2,3]triazolo[4,5-b]pyridin-5-amine], the pIC50 was 6.92 in assay [1] and 6.92 in assay [2] (Amplex Red Assay IC50 value, MPO peroxidation, 100 mM KPi pH 7.4, ten minute preincubation).

For `Nc1cc(OCc2cncn2Cc2ccccc2)c2nn[nH]c2n1` [Example 28, 7-((1-Benzyl-1H-imidazol-5-yl)methoxy)-3H-[1,2,3]triazolo[4,5-b]pyridin-5-amine], the pIC50 in assay [1] (setting [3]) is 5.92; in assay [2] (setting [4]), 5.62.

`Nc1cc(OCC2COc3ccccc3O2)c2nn[nH]c2n1` (centres unmarked) [Example 32, 7-((2,3-Dihydrobenzo[b][1,4]dioxin-2-yl)methoxy)-3H-[1,2,3]triazolo[4,5-b]pyridin-5-amine]: the pIC50 in assay [1] (setting [3]) is 6.49; in assay [2] (setting [4]) it was 6.21.

As for `Nc1cc(OCC2COc3ccccc3C2)c2nn[nH]c2n1` (centres unmarked) [Example 34, 7-(Chroman-3-ylmethoxy)-3H-[1,2,3]triazolo[4,5-b]pyridin-5-amine], the pIC50 in assay [1] (setting [3]) was 6.10; in assay [2] (setting [4]), 5.86.

As to `COc1cc(-c2nc(COc3cc(N)nc4[nH]nnc34)c(C)o2)ccc1Cl` [Example 43, 7-((2-(4-Chloro-3-methoxyphenyl)-5-methyloxazol-4-yl)methoxy)-3H-[1,2,3]triazolo[4,5-b]pyridin-5-amine], the pIC50 in assay [1] (setting [3]) is 5.82; in assay [2] (setting [4]), 6.12.

On to `Cc1oc(-c2ccc(S(C)(=O)=O)cc2)nc1CSc1cc(N)nc2[nH]nnc12` [Example 46, 7-((5-Methyl-2-(4-(methylsulfonyl)phenyl)oxazol-4-yl)methylthio)-3H-[1,2,3]triazolo[4,5-b]pyridin-5-amine], for which the pIC50 in assay [1] (setting [3]) was 6.33; in assay [2] (setting [4]) it was 7.05.

Regarding `Nc1cc(OCc2nn(Cc3ccccc3)c3ccccc23)c2nn[nH]c2n1` [Example 53, 7-((1-Benzyl-1H-indazol-3-yl)methoxy)-3H-[1,2,3]triazolo[4,5-b]pyridin-5-amine], the pIC50 in assay [1] (setting [3]) is 7.00; in assay [2] (setting [4]), 7.10.

Consider `CCc1nn(-c2ccccc2)nc1COc1cc(N)nc2[nH]nnc12` [Example 57, 7-((5-Ethyl-2-phenyl-2H-1,2,3-triazol-4-yl)methoxy)-3H-[1,2,3]triazolo [4,5-b]pyridin-5-amine], for which the pIC50 in assay [1] (setting [3]) is 6.49; in assay [2] (setting [4]) it was 7.10.

As to `Cc1nn(-c2ccc(N3CCNC(=O)C3)nc2)nc1COc1cc(N)nc2[nH]nnc12` [Example 61, 4-(5-(4-(((5-Amino-3H-[1,2,3]triazolo[4,5-b]pyridin-7-yl)oxy)methyl)-5-methyl-2H-1,2,3-triazol-2-yl)pyridin-2-yl)piperazin-2-one], the pIC50 is 6.04 in assay [1] (setting [3]) and 7.05 in assay [2] (setting [4]).

With `Nc1cc(OCC2CCN(C3=NC=CCN3)CC2)c2nn[nH]c2n1` [Example 85, 7-((1-(1,6-Dihydropyrimidin-2-yl)piperidin-4-yl)methoxy)-3H-[1,2,3]triazolo[4,5-b]pyridin-5-amine], the results for the pIC50 in assay [1] (setting [3]) and in assay [2] (setting [4]) were 6.19 and 5.97, respectively.

On to `CS(=O)(=O)N1CCCCC1COc1cc(N)nc2[nH]nnc12` (centres unmarked) [Example 86, 7-((1-(Methylsulfonyl)piperidin-2-yl)methoxy)-3H-[1,2,3]triazolo[4,5-b]pyridin-5-amine], for which the pIC50 is 5.96 in assay [1] (setting [3]) and 5.69 in assay [2] (setting [4]).

For `Nc1cc(OCc2cccnc2Cl)c2nn[nH]c2n1` [Example 90, 7-((2-Chloropyridin-3-yl)methoxy)-3H-[1,2,3]triazolo[4,5-b]pyridin-5-amine], the figures for the pIC50 in assay [1] (setting [3]) and in assay [2] (setting [4]) were 7.30 and 6.96, respectively.

Take `Nc1cc(OCc2cc(-c3ccc(N4CCNCC4)nc3)ncc2F)c2nn[nH]c2n1` [Example 110, 7-((5-fluoro-6′-(piperazin-1-yl)-[2,3′-bipyridin]-4-yl)methoxy)-3H-[1,2,3] triazolo[4,5-b]pyridin-5-amine]: the pIC50 in assay [2] (setting [5]) was at least 7.22.

As for `Nc1cc(OCc2cc(-c3ccc(CO)nc3)ncc2F)c2nn[nH]c2n1` [Example 111, (4-(((5-amino-3H-[1,2,3]triazolo[4,5-b]pyridin-7-yl)oxy)methyl)-5-fluoro-[2,3′-bipyridin]-6′-yl)methanol], in assay [2] (setting [5]), the pIC50 is 6.82 to 7.22.

Take `Nc1nc(OCc2cccc3occc23)c2nn[nH]c2n1` [Example 112, 7-(Benzofuran-4-ylmethoxy)-3H-[1,2,3]triazolo[4,5-d]pyrimidin-5-amine]: the pIC50 in assay [2] (setting [5]) is 6.82 to 7.22.

Consider `Nc1nc(OCc2cccnc2)c2nn[nH]c2n1` [Example 113, 7-(pyridin-3-ylmethoxy)-3H-[1,2,3] triazolo[4,5-d]pyrimidin-5-amine], for which the pIC50 in assay [2] (setting [5]) was 6.82 to 7.22.

In the case of `Nc1nc(OCc2cccc3cccnc23)c2nn[nH]c2n1` [Example 114, 7-(quinolin-8-ylmethoxy)-3H-[1,2,3] triazolo[4,5-d]pyrimidin-5-amine], in assay [2] (setting [5]), the pIC50 is 6.82 to 7.22.

As to `Nc1nc(OCc2ccc3ncccc3c2)c2nn[nH]c2n1` [Example 115, 7-(quinolin-6-ylmethoxy)-3H-[1,2,3] triazolo[4,5-d]pyrimidin-5-amine], in assay [2] (setting [5]), the pIC50 was 6.82 to 7.22.

As to `Nc1nc(OCc2cccc3ncccc23)c2nn[nH]c2n1` [Example 116, 7-(quinolin-5-ylmethoxy)-3H-[1,2,3] triazolo[4,5-d]pyrimidin-5-amine], in assay [2] (setting [5]), the pIC50 is 6.82 to 7.22.

`COc1ccc(-c2cncc(COc3nc(N)nc4[nH]nnc34)c2)cc1` [Example 118, 7-((5-(4-methoxyphenyl)pyridin-3-yl)methoxy)-3H-[1,2,3]triazolo[4,5-d] pyrimidin-5-amine]: in assay [2] (setting [5]), the pIC50 was 6.82 to 7.22.

On to `Nc1nc(OCc2cc(Cl)nc(Cl)c2)c2nn[nH]c2n1` [Example 119, 7-((2,6-dichloropyridin-4-yl)methoxy)-3H-[1,2,3]triazolo[4,5-d]pyrimidin-5-amine], for which, in assay [2] (setting [5]), the pIC50 was 6.82 to 7.22.

For `Nc1nc(OCc2ccc(Cl)nc2)c2nn[nH]c2n1` [Example 120, 7-((6-chloropyridin-3-yl)methoxy)-3H-[1,2,3]triazolo[4,5-d]pyrimidin-5-amine], the pIC50 in assay [2] (setting [5]) is 6.00 to 6.82.

For the molecule `Nc1nc(OCc2cn(-c3ccccc3)nn2)c2nn[nH]c2n1` [Example 121, 7-((1-phenyl-1H-1,2,3-triazol-4-yl)methoxy)-3H-[1,2,3]triazolo[4,5-d] pyrimidin-5-amine], the pIC50 in assay [2] (setting [5]) was 6.82 to 7.22.

`Nc1nc(OCc2ccc(Oc3ccccc3)nc2)c2nn[nH]c2n1` [Example 122, 7-((6-phenoxypyridin-3-yl)methoxy)-3H-[1,2,3]triazolo[4,5-d]pyrimidin-5-amine]: the pIC50 in assay [2] (setting [5]) was 6.82 to 7.22.

For `Nc1nc(OCc2csc(-c3cccc(Cl)c3Cl)n2)c2nn[nH]c2n1` [Example 124, 7-((2-(2,3-dichlorophenyl)thiazol-4-yl)methoxy)-3H-[1,2,3]triazolo[4,5-d] pyrimidin-5-amine], the pIC50 in assay [2] (setting [5]) is 6.82 to 7.22 and 6.00 to 6.82.
